Assay results: PubChem BioAssay AID1259408 (Genetic Toxicology Data Bank (GENE-TOX), 2018)
Calls of active or inactive are those of the source. No rule for the calls is given here.

System: GENE-TOX genotoxicity assays, various organisms and cells
Test: GENE-TOX mutagenicity studies
Settings: for call: Assay Type: In vivo carcinogenicity studies
[1] = Species/Cell Type: Salmonella typhimurium (one or more of the five standard strains: TA98, TA100, TA1535, TA1537, and TA1538), Assay Type: Histidine reverse gene mutation, Ames assay, Assay Code: SAL+, Evaluation Type: Evaluation A (Pre-1980)
[2] = Species/Cell Type: Syrian hamster embryo (SHE) cells, Assay Type: Cell transformation, clonal assay, Assay Code: CTC+, Evaluation Type: Evaluation A (Pre-1980)
[3] = Species/Cell Type: Drosophila melanogaster, Assay Type: Sex-linked recessive lethal gene mutation, Assay Code: SRL+, Evaluation Type: Evaluation A (Pre-1980)
[4] = Species/Cell Type: Drosophila melanogaster, Assay Type: Sex-linked recessive lethal gene mutation, Assay Code: SRLT, Evaluation Type: Evaluation A (Pre-1980)
[5] = Species/Cell Type: Syrian hamster embryo (SA7/SHE) cells, Assay Type: Cell transformation, viral enhanced, Assay Code: CT7+, Evaluation Type: Evaluation A (Pre-1980)
[6] = Species/Cell Type: Escherichia coli polA (W3119 vs P3478), Assay Type: Rec-assay, DNA effects (bacterial DNA repair), Assay Code: RE1T, Evaluation Type: Evaluation A (Pre-1980)
[7] = Species/Cell Type: Nonhuman, Assay Code: CCG+, Evaluation Type: Evaluation A (Pre-1980)
[8] = Species/Cell Type: Arabidopsis species, Assay Type: Gene mutation, Assay Code: ARM+, Evaluation Type: Evaluation A (Pre-1980)
[9] = Species/Cell Type: Mammalian polychromatic erythrocytes, Assay Type: Micronucleus test, chromosome aberrations, Assay Code: MNT+, Evaluation Type: Evaluation B (Post-1980)
[10] = Species/Cell Type: Drosophila melanogaster, Assay Type: Sex-linked recessive lethal gene mutation, Assay Code: SRL-, Evaluation Type: Evaluation A (Pre-1980)
[11] = Species/Cell Type: Hordeum vulgare (barley), Assay Type: Chromosome aberrations, Assay Code: HOC+D, Dose Response: With dose response, Evaluation Type: Evaluation A (Pre-1980)

SMILES: O=Nc1c(O)c(S(=O)(=O)O)cc2cc(S(=O)(=O)O)ccc12
- mutagenic call (Species/Cell Type: Glycine max (soybean), Assay Type: Gene mutation, Assay Code: GLM-, Evaluation Type: Evaluation A (Pre-1980)): inactive; negative

SMILES: c1ccc2c(c1)-c1ccc3ccccc3c1C1OC21 (stereo not drawn)
- mutagenic call (Species/Cell Type: Mouse prostate cells, Assay Type: Cell transformation, Assay Code: CTM-, Evaluation Type: Evaluation A (Pre-1980)): inactive; negative
- mutagenic call [1]: active; positive
- mutagenic call [2]: active; positive

SMILES: CN(C)N=Nc1c(Br)cc(Br)cc1Br
- mutagenic call [3]: active; positive
- mutagenic call (Species/Cell Type: Saccharomyces cerevisiae, Assay Type: Mitotic recombination or gene conversion, Assay Code: YEC+, Evaluation Type: Evaluation A (Pre-1980)): active; positive

SMILES: O=C(O)CNC(=O)c1ccccc1
- mutagenic call (Species/Cell Type: Escherichia coli WP2, Assay Type: Tryptophan reverse gene mutation, Assay Code: WP2-*, Activation: With metabolic activation, Evaluation Type: Evaluation A (Pre-1980)): inactive; negative
- mutagenic call (Species/Cell Type: Escherichia coli WP2 UVRA, Assay Type: Tryptophan reverse gene mutation, Assay Code: WPU-*, Activation: With metabolic activation, Evaluation Type: Evaluation A (Pre-1980)): inactive; negative

SMILES: CCCCCCCCCCCCCCCC(=O)OC/C=C(C)/C=C/C=C(C)/C=C/C1=C(C)CCCC1(C)C
- mutagenic call (Species/Cell Type: Human, Assay Type: Sister-chromatid exchange (SCE) in vitro, Assay Code: SC1+D, Dose Response: With dose response, Evaluation Type: Evaluation A (Pre-1980)): active; positive

SMILES: CCNc1nc(Cl)nc(NC(C)(C)C#N)n1
- mutagenic call (Species/Cell Type: Drosophila melanogaster, Assay Type: Aneuploidy, partial sex chromosome loss, chromosome aberrations, Assay Code: DAPT, Evaluation Type: Evaluation A (Pre-1980)): no conclusion
- mutagenic call (Species/Cell Type: Drosophila melanogaster, Assay Type: Aneuploidy, sex chromosome gain, chromosome aberrations, Assay Code: DAGT, Evaluation Type: Evaluation A (Pre-1980)): no conclusion
- mutagenic call (Species/Cell Type: Drosophila melanogaster, Assay Type: Aneuploidy, whole sex chromosome loss, chromosome aberrations, Assay Code: DAC-M, Evaluation Type: Evaluation A (Pre-1980)): inactive; negative
- mutagenic call [4]: no conclusion
- mutagenic call (Species/Cell Type: Neurospora crassa, Assay Type: Aneuploidy, chromosome aberrations, Assay Code: NEN-, Evaluation Type: Evaluation A (Pre-1980)): inactive; negative
- mutagenic call (Species/Cell Type: Tradescantia species, Assay Type: Chromosome aberrations, Assay Code: TRC+, Evaluation Type: Evaluation A (Pre-1980)): active; positive
- mutagenic call (Species/Cell Type: Vicia faba, Assay Type: Chromosome aberrations, Assay Code: VIC+, Evaluation Type: Evaluation A (Pre-1980)): active; positive
- mutagenic call (Species/Cell Type: Zea mays (corn), Assay Type: Gene mutation, Assay Code: ZEM+, Evaluation Type: Evaluation A (Pre-1980)): active; positive

SMILES: CC1(C)O[C@@H]2C[C@H]3[C@@H]4C[C@H](F)C5=CC(=O)C=C[C@]5(C)[C@@]4(F)[C@@H](O)C[C@]3(C)[C@]2(C(=O)CO)O1
- mutagenic call [5]: active; positive

SMILES: NC(=S)Nc1cccc2ccccc12
- call (Species/Cell Type: Nonhuman, Assay Code: CCGT, Evaluation Type: Evaluation A (Pre-1980)): no conclusion
- mutagenic call [2]: active; positive

SMILES: O=S1(=O)OC2(c3ccccc31)c1cc(Br)c(O)c(Br)c1Oc1c2cc(Br)c(O)c1Br
- mutagenic call [1]: active; positive

SMILES: CC(C)[C@@](O)(C(=O)OCC1=CCN2CCC[C@@H]12)[C@@H](C)O
- mutagenic call (Species/Cell Type: Allium cepa, Assay Type: Chromosome aberrations, Assay Code: ALC+, Evaluation Type: Evaluation A (Pre-1980)): active; positive
- mutagenic call [3]: active; positive

SMILES: Cc1ccc([N+](=O)[O-])o1
- mutagenic call (Species/Cell Type: Bacillus subtilis (H17 vs M45T), Assay Type: Rec-assay, spot test, DNA effects (bacterial DNA repair), Assay Code: REX+, Evaluation Type: Evaluation A (Pre-1980)): active; positive
- mutagenic call [2]: active; positive

SMILES: CN=c1ccc2cc3ccc(NC)cc3oc-2c1
- mutagenic call [4]: no conclusion

SMILES: C[C@H]1O[C@@H](O[C@H]2[C@@H](O)C[C@H](O[C@H]3[C@@H](O)C[C@H](O[C@H]4CC[C@@]5(C)[C@H](CC[C@@H]6[C@@H]5C[C@@H](O)[C@]5(C)[C@@H](C7=CC(=O)OC7)CC[C@]65O)C4)O[C@@H]3C)O[C@@H]2C)C[C@H](O)[C@@H]1O
- mutagenic call [6]: no conclusion

SMILES: CN(C)c1ccc(C(=O)c2ccc(N(C)C)cc2)cc1
- mutagenic call (Species/Cell Type: Fischer rat embryo (RLV/1706) cells, Assay Type: Cell transformation, viral enhanced, Assay Code: CTR+, Evaluation Type: Evaluation A (Pre-1980)): active; positive
- call [7]: active; positive

SMILES: Cc1ccc2cc3c(ccc4ccccc43)c3c2c1C(O)C3O (stereo not drawn)
- mutagenic call (Species/Cell Type: Mouse prostate cells, Assay Type: Cell transformation, Assay Code: CTM+D, Dose Response: With dose response, Evaluation Type: Evaluation A (Pre-1980)): active; positive

SMILES: FC1(F)C(F)(F)C(F)(F)C1(F)F
- mutagenic call [4]: no conclusion

SMILES: CNC(=O)N(C)N=O
- mutagenic call [8]: active; positive
- mutagenic call [1]: active; positive
- mutagenic call (Species/Cell Type: Zea mays (corn), Assay Type: Gene mutation, Assay Code: ZEM+D, Dose Response: With dose response, Evaluation Type: Evaluation A (Pre-1980)): active; positive

SMILES: CCC[N+](=O)[O-]
- mutagenic call (Species/Cell Type: Mammalian polychromatic erythrocytes, Assay Type: Micronucleus test, chromosome aberrations, Assay Code: MNTT, Evaluation Type: Evaluation B (Post-1980)): no conclusion

SMILES: [O]=[Cd]
- call [7]: active; positive

SMILES: CCCN(N=O)/C(N)=N/[N+](=O)[O-]
- mutagenic call [8]: active; positive
- mutagenic call [1]: active; positive

SMILES: C1CNCCN1
- mutagenic call (Species/Cell Type: Salmonella typhimurium, Assay Type: Forward and reverse gene mutation, host-mediated assay, Assay Code: HMA+, Evaluation Type: Evaluation A (Pre-1980)): active; positive

SMILES: Cn1sccc1=O
- mutagenic call (Species/Cell Type: Mammalian polychromatic erythrocytes, Assay Type: Micronucleus test, chromosome aberrations, Assay Code: MNT-, Evaluation Type: Evaluation B (Post-1980)): inactive; negative

SMILES: COc1c(O)c2c(c3cc(C(=O)N4CCc5c4c(O)c(OC)c4[nH]c(C(=O)N6C[C@H]7C[C@@]78C6=CC(=O)c6[nH]cc(C)c68)cc54)[nH]c13)CCN2C(N)=O
- mutagenic call [9]: active; positive

SMILES: CCOP(=O)(OCC)SCCSCC (tested in a mixture with another compound)
- mutagenic call (Species/Cell Type: Bacillus subtilis (H17 vs M45), Assay Type: Rec-assay, spot test, DNA effects (bacterial DNA repair), Assay Code: REW+, Evaluation Type: Evaluation A (Pre-1980)): active; positive
- mutagenic call [10]: inactive; negative
- mutagenic call (Species/Cell Type: Escherichia coli WP2 UVRA, Assay Type: Tryptophan reverse gene mutation, Assay Code: WPU+D, Dose Response: With dose response, Evaluation Type: Evaluation A (Pre-1980)): active; positive
- mutagenic call (Species/Cell Type: Escherichia coli polA (W3119 vs P3478), Assay Type: Rec-assay, DNA effects (bacterial DNA repair), Assay Code: RE1-, Evaluation Type: Evaluation A (Pre-1980)): inactive; negative
- mutagenic call (Species/Cell Type: Nonhuman, Assay Type: Sister-chromatid exchange (SCE) in vitro, Assay Code: SC2+D*, Activation: With metabolic activation, Dose Response: With dose response, Evaluation Type: Evaluation B (Post-1980)): active; positive
- mutagenic call (Species/Cell Type: Saccharomyces cerevisiae, Assay Type: Mitotic recombination or gene conversion, Assay Code: YEH+, Evaluation Type: Evaluation A (Pre-1980)): active; positive
- mutagenic call [1]: active; positive

SMILES: [Cl-].[Cl-].[Cl-].[Cl-].[Cl-].[Cl-].[Mo]
- mutagenic call [5]: active; positive

SMILES: COCCOS(C)(=O)=O
- mutagenic call (Species/Cell Type: Arabidopsis species, Assay Type: Gene mutation, Assay Code: ARM+D, Dose Response: With dose response, Evaluation Type: Evaluation A (Pre-1980)): active; positive
- mutagenic call [11]: active; positive

SMILES: CC(C)=CCOc1c2occc2cc2ccc(=O)oc12
- mutagenic call (Species/Cell Type: Human lymphocytes, Assay Type: Sister-chromatid exchange (SCE) in vitro, Assay Code: SCL+, Evaluation Type: Evaluation B (Post-1980)): active; positive
- mutagenic call (Species/Cell Type: Human, Assay Type: Sister-chromatid exchange (SCE) in vitro, Assay Code: SC1+, Evaluation Type: Evaluation B (Post-1980)): active; positive

SMILES: Nc1ccc(-c2ccc(-c3ccc(N)cc3)cc2)cc1
- mutagenic call [9]: active; positive

SMILES: CCOP(=S)(OCC)SCCSCC
- mutagenic call (Species/Cell Type: Bacillus subtilis (H17 vs M45), Assay Type: Rec-assay, spot test, DNA effects (bacterial DNA repair), Assay Code: REWT, Evaluation Type: Evaluation A (Pre-1980)): no conclusion
- mutagenic call [10]: inactive; negative
- mutagenic call [6]: no conclusion
- mutagenic call [11]: active; positive
- mutagenic call (Species/Cell Type: Human diploid fibroblasts, Assay Type: Unscheduled DNA synthesis (UDS) in vitro, DNA effects, Assay Code: UDH+/-*, Activation: With metabolic activation, Evaluation Type: Evaluation A (Pre-1980)): inactive; positive without activation, negative with activation
- mutagenic call (Species/Cell Type: Nonhuman, Assay Type: Sister-chromatid exchange (SCE) in vitro, Assay Code: SC2T, Evaluation Type: Evaluation B (Post-1980)): no conclusion
- mutagenic call (Species/Cell Type: Saccharomyces cerevisiae, Assay Type: Mitotic recombination or gene conversion, Assay Code: YEH-, Evaluation Type: Evaluation A (Pre-1980)): inactive; negative
- mutagenic call (Species/Cell Type: Salmonella typhimurium (one or more of the five standard strains: TA98, TA100, TA1535, TA1537, and TA1538), Assay Type: Histidine reverse gene mutation, Ames assay, Assay Code: SAL-, Evaluation Type: Evaluation A (Pre-1980)): inactive; negative

SMILES: COc1ccc2c(ccc3c4c(ccc32)C(=O)CC4)c1
- mutagenic call (Species/Cell Type: Salmonella typhimurium (one or more of the five standard strains: TA98, TA100, TA1535, TA1537, and TA1538), Assay Type: Histidine reverse gene mutation, Ames assay, Assay Code: SALT, Evaluation Type: Evaluation A (Pre-1980)): no conclusion
